Measurements published in US11292787B2, “Five-membered-fused-six-membered aza-aromatic ring compound, preparation method thereof, pharmaceutical composition and application thereof” (XIAMEN UNIVERSITY, priority 2017, dated 2022).

These compounds were tested against T1, K-Ras protein (Homo sapiens, UniProt P01116, G12V) (assay: K-Ras protein degradation rate by Western blot in SW-620 cells). Conditions: 10 μM, SW-620 cells, 24 h, Western blot, relative to DMSO control; read-out: Degradation rate of compounds at 10 μM on Ras protein (%).
T1 construct: in SW620 cells, compound I-a-1 can effectively enhance the degradation of endogenous K-RAS-G12V proteins; endogenous in cells; host or cells: SW-620
Assay type: cell-based
Method: Inhibitory activity of compounds on K-RAS was evaluated by the degradation rate of protein level of administration group relative to control group (Cell Rep 2014, 7, 871-882).
The specific method was as follows:
1. Cell plating: SW-620 cells in logarithmic growth phase were inoculated into a 24-well plate at 2×10^4/well, and cultured in a 37° C., 5% CO2 incubator.
2. Administering drug to cells: after 24 h of culture, various drug stocks […]; the original solution in the 24-well plate was discarded, to which was added the obtained drug solution, with the DMSO group as the blank control; after the drug solution was added, the 24-well plate was transferred to the 37° C. CO2 incubator to continue the culture.
3. Detection of K-Ras protein level: after 24 h of administration and culture, the liquid in the well was discarded, the cells were routinely collected, and rinsed twice with 1×PBS, a cell lysate was added to extract the total cellular protein, and the protein concentration was determined by BCA method. 30 μg of the protein sample was taken for SDS-polyacrylamide gel electrophoretic transmembrane, the membrane was blocked sequentially, incubated with K-Ras antibody (1:1000) and internal reference antibody β-actin (1:2000) respectively overnight at 4° C., rinsed with TBST for 5 min×3 times, then incubated with the addition of the corresponding horseradish peroxidase-labeled secondary antibody (1:5000) for 1-2 h, and rinsed with TBST for 5 min×3 times. Finally, chemiluminescence image was acquired using Image Lab software.
4. Calculation of single-point K-Ras protein degradation rate: quantitative and calibration analysis of K-Ras and β-actin were conducted using Image-Lab software, and then the intracellular K-Ras degradation rate was calculated according to the following formula: single-point K-Ras protein degradation rate (%)=(control group−administration group)/control group×100%. The drug with degradation rate ≥20% was selected for soft agar experiment.

T1 sequence (P01116 1-188 isoform P01116-2 G12V): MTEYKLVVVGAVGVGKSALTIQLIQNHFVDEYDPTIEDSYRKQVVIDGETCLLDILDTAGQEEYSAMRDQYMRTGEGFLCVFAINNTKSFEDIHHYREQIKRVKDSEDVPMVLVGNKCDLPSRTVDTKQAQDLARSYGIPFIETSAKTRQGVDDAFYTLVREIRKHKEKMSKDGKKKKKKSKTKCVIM

Row | SMILES | percent K-Ras protein degradation (single point) at 10 µM [%]
1 | O=C(NCc1cccc(C(F)(F)F)c1)c1csc(-c2n[nH]c3ccccc23)c1 [I-a-8] | 20
2 | O=C(NCc1cc(C(F)(F)F)ccc1F)c1csc(-c2n[nH]c3ccccc23)c1 [I-a-9] | 30
3 | O=C(Nc1ccccc1)c1csc(-c2n[nH]c3ccccc23)c1 [I-a-11] | 30
4 | O=C(NCc1c(F)cccc1Cl)c1c[nH]c(-c2n[nH]c3ccccc23)c1 [I-b-1] | 50
5 | O=C(Nc1ccccc1)c1c[nH]c(-c2n[nH]c3ccccc23)c1 [I-b-2] | 56
6 | O=C(NCc1c(F)cccc1Cl)c1coc(-c2n[nH]c3ccccc23)c1 [I-c-1] | 11
7 | O=C(NCc1c(F)cccc1Cl)c1cccc(-c2n[nH]c3ccccc23)c1 [I-d-1] | 2
8 | O=C(Nc1ccccc1)c1ccc(-c2n[nH]c3ccccc23)cc1 [I-e-2] | 12
9 | O=C(NCc1c(F)cccc1Cl)c1ccc(-c2n[nH]c3ccccc23)s1 [I-f-1] | 20
10 | O=C(Nc1ccccc1)c1ccc(-c2n[nH]c3ccccc23)s1 [I-f-2] | 25
11 | O=C(NCc1c(F)cccc1Cl)c1ccc(-c2n[nH]c3ccccc23)[nH]1 [I-g-1] | 30
12 | O=C(NCc1c(F)cccc1Cl)c1coc(-c2c[nH]c3ncccc23)c1 [II-b-1] | 52
13 | O=C(Nc1ccccc1)c1coc(-c2c[nH]c3ncccc23)c1 [II-b-2] | 50
14 | O=C(NCc1c(F)cccc1Cl)c1ccc(-c2c[nH]c3ncccc23)s1 [II-e-1] | 15
15 | O=C(Nc1ccccc1)c1csc(-c2n[nH]c3ncccc23)c1 [III-a-2] | 9
16 | O=C(NCc1cccc(C(F)(F)F)c1)c1csc(-c2n[nH]c3ncccc23)c1 [III-a-3] | 60
17 | O=C(NCc1cc(C(F)(F)F)ccc1F)c1csc(-c2n[nH]c3ncccc23)c1 [III-a-4] | 60
18 | O=C(NCc1c(F)cccc1Cl)c1coc(-c2n[nH]c3ncccc23)c1 [III-b-1] | 35
19 | O=C(Nc1c(F)cccc1Cl)c1cccc(-c2n[nH]c3ncccc23)c1 [III-c-3] | 16
20 | O=C(Nc1ccccc1)c1ccc(-c2n[nH]c3ncccc23)cc1 [III-d-2] | 18
21 | O=C(Nc1c(F)cccc1Cl)c1ccc(-c2n[nH]c3ncccc23)cc1 [III-d-3] | 27
22 | O=C(NCc1c(F)cccc1Cl)c1ccc(-c2n[nH]c3ncccc23)s1 [III-e-1] | 40
23 | O=C(Nc1ccccc1)c1ccc(-c2n[nH]c3ncccc23)s1 [III-e-2] | 40
24 | O=C(NCc1c(F)cccc1Cl)c1c[nH]c(-c2n[nH]c3ncccc23)c1 [III-f-1] | 60
25 | O=C(NCc1c(F)cccc1F)c1c[nH]c(-c2n[nH]c3ncccc23)c1 [III-f-3] | 6
26 | O=C(NCc1ccc(Cl)c(Cl)c1)c1c[nH]c(-c2n[nH]c3ncccc23)c1 [III-f-4] | 19
27 | O=C(NCc1ccc(Cl)cc1)c1c[nH]c(-c2n[nH]c3ncccc23)c1 [III-f-6] | 15
28 | O=C(Nc1ccccc1)c1c[nH]c(-c2n[nH]c3ncccc23)c1 [III-f-10] | 18

More lines, now with the values ahead:

Row | percent K-Ras protein degradation (single point) at 10 µM [%] | SMILES
29 | 13 | O=C(Nc1cccc(C(F)(F)F)c1)c1c[nH]c(-c2n[nH]c3ncccc23)c1 [III-f-11]
30 | 16 | O=C(Nc1cccc(F)c1)c1c[nH]c(-c2n[nH]c3ncccc23)c1 [III-f-13]
31 | 14 | CC(C)Oc1ccc(NC(=O)c2c[nH]c(-c3n[nH]c4ncccc34)c2)cc1 [III-f-15]
32 | 15 | Cc1ccc(NC(=O)c2c[nH]c(-c3n[nH]c4ncccc34)c2)cc1 [III-f-16]
33 | 19 | COc1ccc(NC(=O)c2c[nH]c(-c3n[nH]c4ncccc34)c2)cc1 [III-f-17]
34 | 15 | O=C(Nc1ccc(OC(F)(F)F)cc1)c1c[nH]c(-c2n[nH]c3ncccc23)c1 [III-f-18]
35 | 13 | O=C(NCCc1ccccc1)c1c[nH]c(-c2n[nH]c3ncccc23)c1 [III-f-24]
36 | 14 | O=C(NC1CCCCC1)c1c[nH]c(-c2n[nH]c3ncccc23)c1 [III-f-27]
37 | 45 | N#Cc1ccc(CNC(=O)c2c[nH]c(-c3n[nH]c4ncccc34)c2)cc1 [III-f-31]
38 | 60 | N#Cc1cccc(CNC(=O)c2c[nH]c(-c3n[nH]c4ncccc34)c2)c1 [III-f-32]
39 | 60 | O=C(NCc1ccc(C(F)(F)F)cc1)c1c[nH]c(-c2n[nH]c3ncccc23)c1 [III-f-34]
40 | 50 | O=C(NCc1ccccc1O)c1c[nH]c(-c2n[nH]c3ncccc23)c1 [III-f-35]
41 | 35 | O=C(NCc1ccccn1)c1c[nH]c(-c2n[nH]c3ncccc23)c1 [III-f-37]
42 | 50 | O=C(NCc1cccc(OC(F)(F)F)c1)c1c[nH]c(-c2n[nH]c3ncccc23)c1 [III-f-38]
43 | 60 | O=C(NCc1ccccc1OC(F)(F)F)c1c[nH]c(-c2n[nH]c3ncccc23)c1 [III-f-39]
44 | 30 | O=C(NCc1ccc(OC(F)(F)F)cc1)c1c[nH]c(-c2n[nH]c3ncccc23)c1 [III-f-40]
45 | 60 | O=C(NCc1cccc(Br)c1)c1c[nH]c(-c2n[nH]c3ncccc23)c1 [III-f-41]
46 | 70 | O=C(NCc1ccccc1Br)c1c[nH]c(-c2n[nH]c3ncccc23)c1 [III-f-42]
47 | 40 | O=C(NCc1ccc(Br)cc1)c1c[nH]c(-c2n[nH]c3ncccc23)c1 [III-f-43]
48 | 70 | O=C(NCc1cccc(F)c1)c1c[nH]c(-c2n[nH]c3ncccc23)c1 [III-f-44]
49 | 50 | O=C(NCc1ccccc1F)c1c[nH]c(-c2n[nH]c3ncccc23)c1 [III-f-45]
50 | 60 | O=C(NCc1cccc(Cl)c1)c1c[nH]c(-c2n[nH]c3ncccc23)c1 [III-f-46]
51 | 50 | O=C(NCc1ccccc1Cl)c1c[nH]c(-c2n[nH]c3ncccc23)c1 [III-f-47]
52 | 60 | O=C(NCc1cccc([N+](=O)[O-])c1)c1c[nH]c(-c2n[nH]c3ncccc23)c1 [III-f-48]
53 | 50 | Nc1cccc(CNC(=O)c2c[nH]c(-c3n[nH]c4ncccc34)c2)c1 [III-f-49]
54 | 40 | Cc1cccc(CNC(=O)c2c[nH]c(-c3n[nH]c4ncccc34)c2)c1 [III-f-50]
55 | 70 | Cc1ccccc1CNC(=O)c1c[nH]c(-c2n[nH]c3ncccc23)c1 [III-f-51]
